Experimental data reported in ChEMBL document CHEMBL6103545, “Discovery of GS-2278, a Potent and Selective LPAR1 Antagonist for the Treatment of Idiopathic Pulmonary Fibrosis” (J Med Chem, 2025).

Tests used:
[1] = Toxicity in Beagle dog CNS at 30 mg/kg/day, po measured after 7 days by radiotelemetry; assay type: organism-based, Canis lupus familiaris; details: in vivo, 168 h, time 7 day
[2] = Metabolic stability in cynomolgus monkey liver microsomes assessed as intrinsic clearance at 1 uM by LC/MS/MS analysis; assay type: ADME, Macaca fascicularis, Microsome; details: read-out: CLH (converted)
[3] = target: T1, Solute carrier organic anion transporter family member 1B1 (Homo sapiens, UniProt Q9Y6L6); assay: Inhibition of OATPB1P1 in human hepatocyte by LC-MS analysis; assay type: cell-based
T1 sequence (Q9Y6L6 whole entry): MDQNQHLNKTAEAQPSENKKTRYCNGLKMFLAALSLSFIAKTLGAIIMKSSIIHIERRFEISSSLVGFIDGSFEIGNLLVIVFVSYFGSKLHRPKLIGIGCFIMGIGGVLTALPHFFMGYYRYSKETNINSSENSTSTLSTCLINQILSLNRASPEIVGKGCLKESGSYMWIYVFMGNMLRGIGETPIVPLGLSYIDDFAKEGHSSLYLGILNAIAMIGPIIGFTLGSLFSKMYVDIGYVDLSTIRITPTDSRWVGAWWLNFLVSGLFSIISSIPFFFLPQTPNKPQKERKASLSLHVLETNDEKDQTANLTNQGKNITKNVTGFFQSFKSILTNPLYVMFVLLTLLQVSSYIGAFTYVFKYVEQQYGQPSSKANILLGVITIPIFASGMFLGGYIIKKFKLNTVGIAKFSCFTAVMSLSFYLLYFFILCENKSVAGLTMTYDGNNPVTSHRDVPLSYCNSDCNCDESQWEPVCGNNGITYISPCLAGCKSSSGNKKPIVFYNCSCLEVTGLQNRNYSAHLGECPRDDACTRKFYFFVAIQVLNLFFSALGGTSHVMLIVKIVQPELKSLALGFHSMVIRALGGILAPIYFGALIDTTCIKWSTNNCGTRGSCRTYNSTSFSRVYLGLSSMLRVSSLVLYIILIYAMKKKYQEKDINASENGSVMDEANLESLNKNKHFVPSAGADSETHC

[4] = Volume of distribution in cynomolgus monkey at 1 mg/kg, iv measured after 24 hrs by LC/MS/MS analysis; assay type: ADME, organism-based, Macaca fascicularis; details: in vivo
[5] = target: T2, Lysophosphatidic acid receptor 1 (Homo sapiens, UniProt Q92633); assay: Antagonist activity at LPA1 receptor in serum starved human Primary lung fibroblast cells pre-incubated for 1 hr followed by LPA stimulation and measured after 30 min by MRTF-A assay; assay type: cell-based
T2 sequence (Q92633 whole entry): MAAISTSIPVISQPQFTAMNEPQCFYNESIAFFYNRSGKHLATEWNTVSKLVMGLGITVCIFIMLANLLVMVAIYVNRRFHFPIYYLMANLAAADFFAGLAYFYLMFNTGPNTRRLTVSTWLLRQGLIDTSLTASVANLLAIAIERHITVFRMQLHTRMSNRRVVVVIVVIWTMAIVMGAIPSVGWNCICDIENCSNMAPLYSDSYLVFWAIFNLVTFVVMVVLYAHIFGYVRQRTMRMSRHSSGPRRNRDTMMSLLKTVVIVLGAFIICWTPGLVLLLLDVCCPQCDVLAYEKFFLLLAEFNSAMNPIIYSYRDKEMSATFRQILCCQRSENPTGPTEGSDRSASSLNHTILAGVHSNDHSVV

[6] = target: Voltage-gated inwardly rectifying potassium channel KCNH2 (Homo sapiens, UniProt Q12809); assay: Inhibition of human ERG; assay type: toxicity
Chain of Voltage-gated inwardly rectifying potassium channel KCNH2 (Q12809 whole entry): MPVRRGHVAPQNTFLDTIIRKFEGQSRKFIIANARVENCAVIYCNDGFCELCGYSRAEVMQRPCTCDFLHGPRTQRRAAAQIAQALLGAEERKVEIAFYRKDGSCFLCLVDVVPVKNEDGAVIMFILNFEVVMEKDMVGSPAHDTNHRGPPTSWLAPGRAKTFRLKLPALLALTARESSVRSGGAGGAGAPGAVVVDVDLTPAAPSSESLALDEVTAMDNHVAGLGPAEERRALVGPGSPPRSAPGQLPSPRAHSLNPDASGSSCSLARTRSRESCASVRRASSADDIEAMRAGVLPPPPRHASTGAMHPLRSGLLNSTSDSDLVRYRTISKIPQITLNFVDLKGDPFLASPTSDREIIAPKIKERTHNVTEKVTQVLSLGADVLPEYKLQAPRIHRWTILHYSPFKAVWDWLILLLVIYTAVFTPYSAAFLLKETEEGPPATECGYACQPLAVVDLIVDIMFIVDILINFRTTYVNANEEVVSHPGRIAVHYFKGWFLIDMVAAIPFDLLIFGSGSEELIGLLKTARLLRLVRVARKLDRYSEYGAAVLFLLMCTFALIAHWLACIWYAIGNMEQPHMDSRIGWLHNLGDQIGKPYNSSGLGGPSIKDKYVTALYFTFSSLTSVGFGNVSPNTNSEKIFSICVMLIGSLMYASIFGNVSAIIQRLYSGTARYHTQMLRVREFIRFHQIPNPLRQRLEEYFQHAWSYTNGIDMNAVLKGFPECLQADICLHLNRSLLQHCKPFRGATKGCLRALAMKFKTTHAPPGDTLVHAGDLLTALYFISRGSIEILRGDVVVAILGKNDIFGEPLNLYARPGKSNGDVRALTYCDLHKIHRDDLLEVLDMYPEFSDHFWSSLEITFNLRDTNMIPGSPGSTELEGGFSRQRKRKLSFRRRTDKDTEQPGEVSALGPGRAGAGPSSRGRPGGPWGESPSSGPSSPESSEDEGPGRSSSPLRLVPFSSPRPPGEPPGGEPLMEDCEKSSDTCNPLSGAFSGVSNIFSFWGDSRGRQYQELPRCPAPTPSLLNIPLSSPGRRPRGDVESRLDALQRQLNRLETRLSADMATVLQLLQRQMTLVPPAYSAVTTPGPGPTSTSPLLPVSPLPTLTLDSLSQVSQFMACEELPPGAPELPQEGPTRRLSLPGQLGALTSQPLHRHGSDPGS

[7] = Metabolic stability in male Sprague-Dawley rat liver microsomes assessed as intrinsic clearance at 1 uM by LC/MS/MS analysis; assay type: ADME, Microsome; details: read-out: CLH (converted)
[8] = Oral bioavailability in cynomolgus monkey at 5 mg/kg measured after 24 hrs by LC/MS/MS analysis; assay type: ADME, organism-based, Macaca fascicularis; details: in vivo
[9] = Toxicity in telemetry implanted Beagle dog CNS at 30 mg/kg/day, po measured upto 24 hrs by radiotelemetry based electroencephalogram analysis; assay type: organism-based, Canis lupus familiaris; details: in vivo
[10] = target: T2, Lysophosphatidic acid receptor 1; assay: Antagonist activity at LPA1 receptor in human TWNT-4 cells pre-incubated for 1 hr followed by LPA stimulation and measured after 30 min in presence of 4% human serum albumin by MRTF-A assay; assay type: cell-based
[11] = Plasma protein binding in Beagle dog assessed as unbound fraction at 2 uM incubated for 24 hrs by LC-MS analysis; assay type: ADME, cell-free, Canis lupus familiaris
[12] = Plasma protein binding in female CD-1 mouse assessed as unbound fraction at 2 uM incubated for 24 hrs by LC-MS analysis; assay type: ADME, cell-free
[13] = target: T2, Lysophosphatidic acid receptor 1; assay: Displacement of [3H]LPA from human LPA1 receptor overexpressed in CHO cell membrane assessed as inhibition constant incubated for 90 min by competitive radioligand binding assay; assay type: cell membranes
[14] = target: T2, Lysophosphatidic acid receptor 1; assay: Antagonist activity at human LPA1 receptor expressed in HEK293 cells assessed as Galpha15 effector recruitment incubated for 10 mins by BRET assay; assay type: functional, cell-based
[15] = Apparent permeability across apical to basolateral side in cMDR1 knockout MDCK-II cells incubated upto 240 mins by RF-QToF analysis; assay type: ADME, cell-based, Canis lupus familiaris; details: dog
[16] = Toxicity in Beagle dog CNS at 60 mg/kg/day, po measured after 7 days by radiotelemetry; assay type: organism-based, Canis lupus familiaris; details: in vivo, 168 h, time 7 day
[17] = target: T3, Solute carrier organic anion transporter family member 1B3 (Homo sapiens, UniProt Q9NPD5); assay: Inhibition of OATPB1P3 in human hepatocyte by LC-MS analysis; assay type: cell-based
T3 sequence (Q9NPD5 whole entry): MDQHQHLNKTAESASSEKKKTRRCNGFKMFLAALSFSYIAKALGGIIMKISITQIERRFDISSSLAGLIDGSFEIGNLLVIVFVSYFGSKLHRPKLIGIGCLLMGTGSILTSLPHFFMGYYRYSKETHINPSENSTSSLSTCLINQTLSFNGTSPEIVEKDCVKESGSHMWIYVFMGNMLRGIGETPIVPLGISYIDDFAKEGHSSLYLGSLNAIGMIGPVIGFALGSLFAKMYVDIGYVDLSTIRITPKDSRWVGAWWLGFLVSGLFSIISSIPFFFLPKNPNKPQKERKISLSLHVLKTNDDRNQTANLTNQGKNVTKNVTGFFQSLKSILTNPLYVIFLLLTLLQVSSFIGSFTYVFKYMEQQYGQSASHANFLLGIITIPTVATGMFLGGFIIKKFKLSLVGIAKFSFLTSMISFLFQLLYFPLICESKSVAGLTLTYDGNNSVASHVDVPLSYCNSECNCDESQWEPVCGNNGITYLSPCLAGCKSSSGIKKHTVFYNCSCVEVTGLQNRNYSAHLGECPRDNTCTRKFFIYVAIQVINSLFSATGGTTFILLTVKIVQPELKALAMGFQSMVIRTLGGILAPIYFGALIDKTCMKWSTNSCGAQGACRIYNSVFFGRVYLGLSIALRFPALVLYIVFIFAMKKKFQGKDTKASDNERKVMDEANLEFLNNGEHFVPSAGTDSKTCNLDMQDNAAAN

[18] = Half-life in Beagle dog at 5 mg/kg, po measured after 24 hrs by LC/MS/MS analysis; assay type: ADME, organism-based, Canis lupus familiaris; details: in vivo
Cytochrome P450 3A4 = Cytochrome P450 3A4 (Homo sapiens, UniProt P08684); assay: Inhibition of CYP3A4 (unknown origin) using testosterone as substrate; assay type: ADME
Chain of Cytochrome P450 3A4 (P08684 whole entry): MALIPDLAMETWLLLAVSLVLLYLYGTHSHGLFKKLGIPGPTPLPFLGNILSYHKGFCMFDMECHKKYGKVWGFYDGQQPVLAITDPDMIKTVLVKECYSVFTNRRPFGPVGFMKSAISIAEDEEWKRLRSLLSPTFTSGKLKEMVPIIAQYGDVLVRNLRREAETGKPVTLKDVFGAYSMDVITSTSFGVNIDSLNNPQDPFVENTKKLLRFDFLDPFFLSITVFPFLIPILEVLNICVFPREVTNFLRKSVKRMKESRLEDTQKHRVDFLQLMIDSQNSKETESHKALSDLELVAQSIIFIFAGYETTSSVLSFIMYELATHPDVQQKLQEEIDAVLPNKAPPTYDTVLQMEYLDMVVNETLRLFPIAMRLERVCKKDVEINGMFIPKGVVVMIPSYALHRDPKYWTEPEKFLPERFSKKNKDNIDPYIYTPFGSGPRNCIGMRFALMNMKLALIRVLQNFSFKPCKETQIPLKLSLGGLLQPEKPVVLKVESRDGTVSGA

[19] = Oral bioavailability in male Sprague-Dawley rat at 5 mg/kg measured after 24 hrs by LC/MS/MS analysis; assay type: ADME, organism-based; details: in vivo
[20] = Toxicity in Beagle dog CNS at 10 mg/kg/day, po measured after 28 days by radiotelemetry; assay type: organism-based, Canis lupus familiaris; details: in vivo, 672 h, time 28 day
[21] = target: T2, Lysophosphatidic acid receptor 1; assay: Antagonist activity at human LPA1 receptor expressed in HEK293 cells assessed as beta-arrestin2 effector recruitment incubated for 10 mins by BRET assay; assay type: functional, cell-based
[22] = Toxicity in Beagle dog CNS at 20 mg/kg/day, po measured after 28 days by radiotelemetry; assay type: organism-based, Canis lupus familiaris; details: in vivo, 672 h, time 28 day
P-gp (human) [23] = assay: Apparent permeability from basolateral to apical side of human P-gp transfected MDCK cells measured after 20 min by LC/MS/MS analysis; assay type: ADME, cell-based, Canis lupus familiaris; details: dog, MDCK-MDR1
P-gp (human) [24] = assay: Apparent permeability from apical to basolateral side of human P-gp transfected MDCK cells measured after 20 min by LC/MS/MS analysis; assay type: ADME, cell-based, Canis lupus familiaris; details: dog, MDCK-MDR1

For `C[C@@H](OC(=O)Nc1c(-c2ccc(NC(=O)c3cnc(C(F)(F)F)nc3)cn2)nnn1C)c1cc(F)cnc1F`, which Activity [1] is on record?
Its Activity is “Non-toxic”.

What about the CLint scaled at 1 µM [2] of the same compound?
Its CLint scaled at 1 µM is 7.5 mL/min/kg.

And the IC50 [3]?
The IC50 was 13000 nM.

What about the Vd [4] of the same compound?
Its Vd is 0.8 L/kg.

And the EC50 [5]?
Its EC50 is 8 nM.

And the IC50 [6]?
The IC50 was over 30000 nM.

What about the CLint scaled at 1 µM [7] of the same compound?
The CLint scaled at 1 µM was 16.3 mL/min/kg.

And the bioavailability [8]?
The bioavailability was 43%.

And the Activity [9]?
Its Activity is “Non-toxic”.

And the EC50 [10]?
Its EC50 is 34 nM.

And the fraction unbound at 24 h, 2 µM [11]?
The fraction unbound at 24 h, 2 µM was 0.095.

And the fraction unbound at 24 h, 2 µM [12]?
The fraction unbound at 24 h, 2 µM was 0.066.

And the Ki [13]?
The Ki was 60 nM.

What about the EC50 [14] of the same compound?
The EC50 was 46.1 nM.

And the Papp A→B at 4 h [15]?
The Papp A→B at 4 h was 11 ×10⁻⁶ cm/s.

And the Activity [16]?
The Activity was “Non-toxic”.

What about the IC50 [17] of the same compound?
The IC50 was 15000 nM.

What about the half-life [18] of the same compound?
The half-life was 2.9 h.

What about the “inhibition (INH)” value (Cytochrome P450 3A4) of the same compound?
The value was “Time-dependent-effect”.

What about the bioavailability [19] of the same compound?
The bioavailability was 40%.

What about the Activity [20] of the same compound?
Its Activity is “Non-toxic”.

And the EC50 [21]?
Its EC50 is 134 nM.

What about the Activity [22] of the same compound?
Its Activity is “Non-toxic”.

And the Papp B→A at 20 min (P-gp (human) [23])?
Its Papp B→A at 20 min is 11 ×10⁻⁶ cm/s.

What about the Papp A→B at 20 min (P-gp (human) [24]) of the same compound?
The Papp A→B at 20 min was 0.3 ×10⁻⁶ cm/s.
